Experimental data as given in US6476074B1, “Method and composition for treatment of erectile dysfunction” (Synphora AB, priority 1997, dated 2002).

Tests used:
anaesthetized rats = test: Reduction of blood pressure in anaesthetized rats on intravenous infusion; format: in vivo, rat; details: n=3, Mean ± SEM
From the text: The vasodilatory effect of the prostaglandin analogues was also studied in the rat by registering the blood pressure reducing effect. This is a relevant […] model for showing general vasodilatory effect of importance for inducing erection since vasodilation in penis is needed for achieving erection. Rats were anaesthetized with a mixture of ketarnine and xylazin and the prostaglandin analogues were infused intravenously. The blood pressure was continuously registered in a femoral artery. Each analogue was infused in 3 escalating doses in the same animal. […] In all experiments the blood pressure reduction was transient and the blood pressure increased immediately after termination of the infusion. The analogues were used both as esters and acids for the experiments.

cat eyes [1] = test: Irritant effect in cat eyes (behavioural model, eyelid closure); format: in vivo; details: for Maximum irritative effect: scale 0-3, Mean ± SEM (n = 3-6); for irritant effect (in words): cat eye, topical single dose
Procedure: The irritant effect of the prostaglandin analogues was tested using a behavioural model in cats. In this model the irritant effect on the eye is studied by registering the degree of eyelid closure and the behaviour of the animals. Compounds that cause discomfort and pain in the eye cause the animals to close their eyes. The analogues were applied as carboxylic acid esters, to enhance bioavailability, topically on the eye as a single dose at different dose levels. The animals were then followed for several hours at regular intervals. Each compound and dose was tested on a group of 3-6 cats. At least 3 days elapsed between two consecutive tests on the same animals. An arbitrary scale from 0 (absence of irritation) to 3 (marked irritation), with half steps was used.

cat eyes [2] = test: as above; format: in vivo; details: cat eye
[3] = tested on: rabbit penile blood vessels; test: Vasodilatory effect on isolated rabbit penile blood vessels precontracted with norepinephrine (myograph); format: cell-based; details: FIG. 2; precontracted with 10^−6 M norepinephrine; normalized to papaverine
Procedure: The solution also contained indomethacin at a final concentration of about 3 μM, and was continuously bubbled by 95% O2 and 5%CO2. The temperature was kept constant at 37° C. The vessels were stretched and then precontracted using 10^-6 M norepinephrine, and the vasorelaxant effect of the prostaglandin analogues was normalized by comparing it to that of papaverine in the same preparation. Cumulative concentration-response curves were constructed for the analogues.

rabbits = details: Hall and Jaitly, 1977; cited from earlier work
[4] = tested on: human corpus cavernosum tissue; test: Relaxation of isolated human corpus cavernosum tissue precontracted with norepinephrine; format: cell-based; details: for Reduction in tension (%): precontracted with 10^−6 M norepinephrine, compared to carbachol (10^−6 M), Mean ± SEM; for Reduction in tension (%) / EC50: n=8; for EC50: relaxation of tissue precontracted with 10^−6 M norepinephrine
Procedure: Human penile cavernous tissue was obtained fresh from surgery, and representative tissue samples were mounted in smooth muscle tissue baths containing a modified Kreb's solution consisting of NaCl 119 mM, KCl 4.6 mM, MgCl2 1.2 mM, NaH2PO4 1.2 mM, NaHCO3 15 mM, CaCl2 1.5 mM and glucose 11 mM. The solution also contained indomethacin at a final concentration of about 3 μM. The solution was continuously bubbled by 95% O2 and 5% CO2, and the temperature was kept at 37° C.
The tissue preparations were stretched by a force corresponding to 500 mg, and were given a contractile tone by the addition of norepinephrine at a concentration of 10^−6 M. Concentration-response curves were then constructed by adding cumulatively increasing concentrations of the prostaglandin analogues to the bath in a routine way. The relaxant effect was normalized by comparing to that of carbachol in the same preparation.

cat eyes [5] = test: Intraocular pressure in cats by pneumatonometry after topical administration; format: in vivo; details: 3 cats, local anaesthesia; before treatment 16.3+/−0.9 mmHg; vehicle eye 16.3 and 15.7 mmHg
Procedure: To confirm that 19R-OH-PGE2-methyl ester, which is more hydrophilic than PGE1-isopropyl ester, indeed penetrates into the cornea and the intraocular parts of the eye we measured the intraocular pressure in 3 cats under local anaesthesia before and 1 hour after topical administration of the prostaglandin to the eye. The intraocular pressure was measured by pneumatonometry. One eye was treated with the test compound and the other eye received the vehicle only. In the eyes treated topically with 19R-OH-PGE2-methyl ester the intraocular pressure decreased from 16.3+/−0.9 mmHg to 12.7+/−1.2 mmHg, whereas it was 16.3+/−0.9 mmHg and 15.7+/−0.7 mmHg in the control eyes at the same time points. It is well known that prostaglandins reduce the intraocular pressure in cats (Bito et al., 1989), and it can thus be taken as an evidence that the drug has penetrated into the eye. […] Thus the absence of pain and irritation after administration of 18RS-OH-PGE2, 19R-OH-PGE2 and 20OH-PGE2 cannot be explained on the basis of increased hydrophilicity and poor bioavailability.

[6] = log P estimated by thin layer chromatography; format: physicochemical; details: estimated from thin layer chromatography with PGF2α isopropyl ester as reference
[7] = reference value used for the TLC estimate; cited from earlier work
[8] = 7.5-10 μg/kg intravenous infusion
[9] = 25-35 μg/kg intravenous infusion

Molecule	Reduction (%) of blood pressure (anaesthetized rats; [8])	Reduction (%) of blood pressure (anaesthetized rats; [9])	Maximum irritative effect (cat eyes [1]; Dose 1 μg topically on eye)	Maximum irritative effect (cat eyes [1]; Dose 10 μg topically on eye)	Reduction in tension (%) [4]	Maximum irritative effect (cat eyes [1]; Dose 0.1 μg topically on eye)	other results
18RS-OH-PGE2	15 ± 3%	32 ± 2%	–	–	–	–	–
CCC(O)CC[C@H](O)/C=C/[C@H]1[C@H](O)CC(=O)[C@@H]1C/C=C\CCCC(=O)OC (stereo partly shown) [18RS-OH-PGE2-me, 18RS-Hydroxy PGE2 Methyl Ester]	–	–	0.0 ± 0.0	0.0 ± 0.0	–	–	Maximum irritative effect (cat eyes [1]; Dose 3 μg topically on eye): 0.0 ± 0.0; Maximum irritative effect (cat eyes [1]; Dose 30 μg topically on eye): 0.3 ± 0.2; irritant effect (in words) (cat eyes [1]): no or markedly reduced irritant effect, even at doses 1000 times higher than PGE1-isopropyl ester
C[C@@H](O)CCC[C@H](O)/C=C/[C@H]1[C@H](O)CC(=O)[C@@H]1C/C=C\CCCC(=O)O [19R-OH-PGE2, 19R-hydroxy-prostaglandin E2]	31 ± 3%	43 ± 6%	–	–	96.9 ± 3.1%	–	irritation by swelling of the ocular structures (in words) (cat eyes [2]): no evidence of such irritation; vasodilatory effect (in words) [3]: the same efficacy in inducing vasodilatation and were also about equipotent; lid closure and irritant effect in rabbit eye (in words) (rabbits): does not cause lid closure in rabbits but induces an irritant effect by inducing swelling of the ocular structures; factor by which concentration-response curves of PGE1 and 19R-OH-PGE2 differ ([4]; FIG. 1, 19R-OH-PGE2 about half to one third as potent as PGE1): 2-3; EC50 [4]: 690 nM
COC(=O)CCC/C=C\C[C@H]1C(=O)C[C@@H](O)[C@@H]1/C=C/[C@@H](O)CCC[C@@H](C)O [19R-OH-PGE2-me, 19-R-Hydroxy-prostaglandin E2-Methyl Ester]	–	–	0.1 ± 0.1	0.1 ± 0.1	–	0.0 ± 0.0	intraocular pressure 1 hour after topical administration (cat eyes [5]): 12.7+/−1.2 mmHg; Maximum irritative effect (cat eyes [1]; Dose 100 μg topically on eye): 0.7 ± 0.4; irritant effect (in words) (cat eyes [1]): no or markedly reduced irritant effect, even at doses 1000 times higher than PGE1-isopropyl ester
O=C(O)CCC/C=C\C[C@H]1C(=O)C[C@@H](O)[C@@H]1/C=C/[C@@H](O)CCCCCO [20-OH-PGE2, 20-hydroxy PGE2]	38 ± 3%	44 ± 0%	–	–	–	–	–
COC(=O)CCC/C=C\C[C@H]1C(=O)C[C@@H](O)[C@@H]1/C=C/[C@@H](O)CCCCCO [20-OH-PGE2-me, 20-OH-Prostaglandin E2-Methyl Ester]	–	–	–	1.2 ± 0.2	–	–	Maximum irritative effect (cat eyes [1]; Dose 3 μg topically on eye): 0.5 ± 0.0; Maximum irritative effect (cat eyes [1]; Dose 30 μg topically on eye): 1.2 ± 04
C[N+](C)(C)CCOC(N)=O [Carbachol, reference compound]	–	–	–	–	100.0 ± 0.0%	–	–
CCCCC[C@H](O)/C=C/[C@H]1[C@H](O)CC(=O)[C@@H]1CCCCCCC(=O)O [PGE1, prostaglandin E1, reference compound]	35 ± 5%	52 ± 3%	1.6 ± 0.2	3.0 ± 0.0	90.9 ± 3.7%	0.6 ± 0.1	chromatographic logP [6]: 0.7; vasodilatory effect (in words) [3]: the same efficacy in inducing vasodilatation and were also about equipotent; EC50 ([4]; Homo sapiens): 250 nM
CCCCC[C@H](O)/C=C/[C@H]1[C@H](O)CC(=O)[C@@H]1CCCCCCC(=O)OC(C)C [PGE1-ie, PGE1-isopropyl ester, reference compound]	–	–	–	–	–	1.7 ± 0.3	Maximum irritative effect (cat eyes [1]; Dose 0.01 μg topically on eye): 0.4 ± 0.2; Maximum irritative effect (cat eyes [1]; Dose 0.3 μg topically on eye): 2.8 ± 0.1
CCCCC[C@H](O)/C=C/[C@@H]1[C@@H](C/C=C\CCCC(=O)OC(C)C)[C@@H](O)C[C@H]1O [PGF2α isopropyl ester]	–	–	–	–	–	–	log P of reference [7]: (log P 4.5). ie = isopropyl ester, me = methyl ester.
